Results taken from patent US9855270B2, “Methods and compositions for modulating estrogen receptor mutants” (priority 2014, dated 2018).
Read-outs that look alike come from different tables or passages of the source.

Key:
Format in all cases: cell-based
Design in all cases: Percent inhibition compared to vehicle: concentration or dose not given beside the values
[1] = system: MCF-7 cells (negative control); test: MCF-7 Stable Cell Line Viability (UbC HA-ER-α series)
Description: (§1) MCF-7 Mutant ER-α Stable Cell Line Generation: MCF-7 cells stably expressing wild-type or ER-α mutants were generated by subcloning ESR1 wild-type and mutant cDNAs containing an amino terminal hemagglutinin tag into pCDH-EF1-MCS-(PGK-Puro) (referred to as EF1 HA-ER-α) and pCDH-UbC-MCS-EF1-Hygro (referred to as UbC HA-ER-α) (System Biosciences). The resulting plasmids, in addition to an empty vector negative control, were subsequently cotransfected into HEK293T cells with the pPACKH1 packaging plasmid mix (System Biosciences) according to the manufacturer's protocol. Four days post transfection lentiviral particles were purified from the cell medium, tiered and stored at −80° C. MCF-7 cells were transduced with the purified viral particles and stable cell lines were selected by growth in RPMI containing 10% FBS plus 1 μG/mL puromycin or 200 μG/mL hygromycin for pCDH-EF1-MCS-(PGK-Puro) and pCDH-UbC-MCS-EF1-Hygro, respectively.
(§2) MCF-7 Stable Cell Line Viability: MCF-7 cells were enumerated with a hemacytometer adjusted to a concentration of 40,000 cells per mL in Phenol Free RPMI containing 10% CSS with NEAA and Sodium Pyruvate. 16 microliters of the cell suspension was added to each well of a 384 well tissue culture treated white clear bottom polystyrene plate (Corning) using a Matrix 16 channel electronic pipette. The cells were incubated overnight to allow the cells to adhere. The following day, 16 microliters of Phenol Free RPMI containing 10% CSS with NEAA and Sodium Pyruvate was added to the wells of one plate, followed by 16 μL of CellTiter-Glo (Promega, Madison Wis.) luminescent cell viability reagent using a Matrix 16 channel electronic pipette. […] The “average” of the relative luminescence units (RLUs) of the wells are considered to be the baseline value at time=zero. In addition, a 10 point, 1:5 serial dilution in DMSO (Sigma-Aldrich) was performed using Matrix 12 channel electronic pipette, including DMSO only as […]. 4 μL of each dilution was then added to 196 μL of RPMI containing 10% CSS with NEAA and Sodium Pyruvate. 16 μL of medium containing compound was added to the cells at a final concentration ranging from 10 μM to 5 pM. Compound dilution in media and subsequent addition to cells were carried out using Matrix 12 channel electronic pipettes. After 5 day compound exposure, 16 μL of CellTiter-Glo (Promega, Madison Wis.) luminescent cell viability reagent was added to the cells using a Matrix 16 channel electronic pipette. CellTiter-Glo added to 32 μL of medium without cells was used to obtain a background value. […] The relative luminescence units (RLUs) of each well were measured, and relative proliferation (fold) of each sample was determined as follows: (RLU sample−RLU background)/(RLU at T=0)=relative proliferation
(§3) The UbC promoter is reported by the manufacturer (System Biosciences) to express low to moderate RNA levels while the EF1 promoter expresses high levels (System Biosciences).

[2] = system: MCF-7 cells stably expressing UbC HA-ER-α wild-type; test: as above; details: UbC HA-ER-α Wild-type; for Percent inhibition compared to vehicle: 5-Day Incubation; for Efficacy (Emax): Day 5 relative to Day 0
Description: as §1, §2, §3

[3] = system: MCF-7 cells stably expressing UbC HA-ER-α L536R; test: cells; details: UbC HA-ER-α L536R; for Efficacy (Emax): Day 5 relative to Day 0
Description: as §1, §2, §3

[4] = system: MCF-7 cells stably expressing EF1 HA-ER-α Y537N; test: cells; details: EF1 HA-ER-α Y537N; for Percent inhibition compared to vehicle: 5-Day Incubation; for Efficacy (Emax): Day 5 relative to Day 0; for EC50: read-out: Potency (EC50; nM)
Description: as §1, §2, §3

[5] = system: MCF-7 cells stably expressing UbC HA-ER-α E380Q; test: cells; details: UbC HA-ER-α E380Q; for Percent inhibition compared to vehicle: 5-Day Incubation; for Efficacy (Emax): Day 5 relative to Day 0
Description: as §1, §2, §3

[6] = system: MCF-7 cells stably expressing EF1 HA-ER-α E380Q; test: cells; details: EF1 HA-ER-α E380Q; for Percent inhibition compared to vehicle: 5-Day Incubation; for Efficacy (Emax): Day 5 relative to Day 0; for EC50: read-out: Potency (EC50; nM)
Description: as §1, §2, §3

[7] = system: MCF-7 cells stably expressing EF1 HA-ER-α wild-type; test: MCF-7 Stable Cell Line Viability (EF1 HA-ER-α series); details: EF1 HA-ER-α Wild-type; for Percent inhibition compared to vehicle: 5-Day Incubation; for Efficacy (Emax): Day 5 relative to Day 0
Description: as §1, §2, §3

[8] = system: MCF-7 cells transduced with an empty EF1 lentiviral vector (negative control); test: as above; details: for Efficacy (Emax): Day 5 relative to Day 0; for EC50: read-out: Potency (EC50; nM)
Description: as §1, §2, §3

[9] = Receptor None (MCF-7 negative control), Agonist Mode, −E2, Day 5 relative to Day 0
[10] = Agonist Mode, −E2, read-out: Potency (EC50; nM)
[11] = Antagonist Mode, +E2, read-out: Potency (EC50; nM)
[12] = Antagonist Mode, −E2 (Table 27)
[13] = Receptor None (empty EF1 lentiviral vector), Agonist Mode, −E2
[14] = Receptor None (empty EF1 lentiviral vector), Antagonist Mode, +E2
[15] = Homo sapiens, MCF7, read-out: Potency (EC50; nM), Agonist Mode, −E2

## CCC(=C(c1ccc(O)cc1)c1ccc(OCCN(C)C)cc1)c1ccccc1 [4-Hydroxytamoxifen]
[1]; Receptor None (MCF-7 negative control), Agonist Mode, −E2, 5-Day Incubation
  Percent inhibition compared to vehicle: 19%
[1]; [9]
  Efficacy (Emax): 1.42 ± 0.43
[1]; Receptor None (MCF-7 negative control), Agonist Mode, −E2, read-out: Potency (EC50; nM)
  EC50: 263 ± 525 nM
[1]; Receptor None (MCF-7 negative control), Antagonist Mode, +E2, 5-Day Incubation
  Percent inhibition compared to vehicle: 58%
[1]; Receptor None (MCF-7 negative control), Antagonist Mode, +E2, Day 5 relative to Day 0
  Efficacy (Emax): 1.34 ± 0.07
[1]; Receptor None (MCF-7 negative control), Antagonist Mode, +E2, read-out: Potency (EC50; nM)
  EC50: 2.47 ± 1.78 nM
[2]; Agonist Mode, −E2
  Percent inhibition compared to vehicle: 14%
  Efficacy (Emax): 1.58 ± 0.16
[2]; [10]
  EC50: 0.626 ± 0.528 nM
[2]; Antagonist Mode, +E2
  Percent inhibition compared to vehicle: 68%
  Efficacy (Emax): 1.57 ± 0.08
[2]; [11]
  EC50: 2.95 ± 2.51 nM
[3]; Agonist Mode, −E2
  Efficacy (Emax): 2.26 ± 0.36
[3]; [10]
  EC50: 1.06 ± 0.714 nM
[3]; Antagonist Mode, +E2, 5-Day Incubation
  Percent inhibition compared to vehicle: 61%
[3]; Antagonist Mode, +E2
  Efficacy (Emax): 2.34 ± 0.18
[3]; [11]
  EC50: 6.09 ± 4.42 nM
[4]; Agonist Mode, −E2
  Percent inhibition compared to vehicle: 60%
  Efficacy (Emax): 2.43 ± 0.13
  EC50: 6.04 ± 1.36 nM
[4]; Antagonist Mode, +E2
  Percent inhibition compared to vehicle: 57%
  Efficacy (Emax): 2.39 ± 0.24
  EC50: 5.25 ± 2.84 nM
[4]; [12]
  EC50: 6.04 ± 1.36 nM
[5]; Agonist Mode, −E2
  Percent inhibition compared to vehicle: 44%
[5]; [10]
  EC50: 1.59 ± 0.681 nM
[5]; Antagonist Mode, +E2
  Percent inhibition compared to vehicle: 66%
[5]; [11]
  EC50: 4.92 ± 0.671 nM
[6]; Agonist Mode, −E2
  Percent inhibition compared to vehicle: 21%
  Efficacy (Emax): 5.17 ± 0.26
  EC50: 26 ± 9.12 nM
[6]; Antagonist Mode, +E2
  Percent inhibition compared to vehicle: 19%
  Efficacy (Emax): 5.03 ± 0.85
  EC50: 65.4 ± 24.4 nM
[6]; [12]
  EC50: 26 ± 9.12 nM
[7]; Agonist Mode, −E2
  Percent inhibition compared to vehicle: 30%
  Efficacy (Emax): 3.99 ± 0.38
[7]; [10]
  EC50: 0.186 ± 0.04 nM
[7]; Antagonist Mode, +E2
  Percent inhibition compared to vehicle: 40%
  Efficacy (Emax): 4.05 ± 0.36
[7]; [11]
  EC50: 5.16 ± 0.137 nM
[7]; Antagonist Mode, −E2 (Table 27), read-out: Potency (EC50; nM)
  EC50: 0.186 ± 0.04 nM
[8]; [13]
  Efficacy (Emax): 1.49 ± 0.06
  EC50: 0.531 ± 0.381 nM
[8]; Receptor None (empty EF1 lentiviral vector), Antagonist Mode, +E2, 5-Day Incubation
  Percent inhibition compared to vehicle: 60%
[8]; [14]
  Efficacy (Emax): 1.60 ± 0.08
  EC50: 2.32 ± 0.599 nM
[8]; Receptor None (empty EF1 lentiviral vector), Antagonist Mode, −E2 (Table 27)
  EC50: 0.531 ± 0.381 nM

## C[C@]12CC[C@@H]3c4ccc(O)cc4CC[C@H]3[C@@H]1CC[C@@H]2O [17β-Estradiol]
[1]; Homo sapiens, MCF7, Receptor None (MCF-7 negative control), Agonist Mode, −E2, read-out: Potency (EC50; nM)
  EC50: 0.279 ± 0.518 nM
[1]; [9]
  Efficacy (Emax): 4.12 ± 0.88
[2]; [15]
  EC50: 0.101 ± 0.16 nM
[2]; Agonist Mode, −E2
  Efficacy (Emax): 4.43 ± 0.88
[2]; Antagonist Mode, +E2
  Efficacy (Emax): 5.12 ± 1.52
[3]; [15]
  EC50: 0.008 ± 0.006 nM
[3]; Agonist Mode, −E2
  Efficacy (Emax): 5.72 ± 0.74
[3]; Antagonist Mode, +E2
  Efficacy (Emax): 5.92 ± 0.67
[4]; Agonist Mode, −E2
  Efficacy (Emax): 5.52 ± 0.43
[5]; [15]
  EC50: 0.013 ± 0.011 nM
[5]; Agonist Mode, −E2
  Efficacy (Emax): 7.36 ± 1.07
[5]; Antagonist Mode, +E2
  Efficacy (Emax): 7.69 ± 1.94
[6]; Antagonist Mode, +E2
  Efficacy (Emax): 5.75 ± 0.17
[7]; Agonist Mode, −E2
  Efficacy (Emax): 7.35 ± 1.28
[7]; Antagonist Mode, +E2
  Efficacy (Emax): 6.67 ± 1.25
[7]; [15]
  EC50: 0.518 ± 0.699 nM
[7]; Homo sapiens, MCF7, read-out: Potency (EC50; nM), Antagonist Mode, −E2 (Table 27)
  EC50: 0.518 ± 0.699 nM
[8]; Homo sapiens, MCF7, Receptor None (empty EF1 lentiviral vector), Agonist Mode, −E2
  EC50: 0.02 ± 0.001 nM
[8]; Homo sapiens, MCF7, Receptor None (empty EF1 lentiviral vector), Antagonist Mode, −E2 (Table 27)
  EC50: 0.02 ± 0.001 nM
[8]; [14]
  Efficacy (Emax): 4.24 ± 0.90
